According to patent US6903119B1, “Amino acid derivatives and drugs containing the same as the active ingredient” (Ono Pharmaceutical Co., Ltd., priority 1998, dated 2005):
Where a name gives a salt, the structure may show the parent alone.

Target: T1, N-type calcium channel (Homo sapiens, UniProt Q00975)
T1 construct: Cell line was differentiated according to the method described in FEBS Lett. (1988) 235 178-182; endogenous in cells; host or cells: unnamed cell line, differentiated per FEBS Lett. (1988) 235 178-182
Test: Determination of inhibitory activity on N-type calcium channel (Fura-2 calcium influx, KCl depolarization, with nifedipine)
Type: cell-based
Details: compound at final concentration of 3 μM, depolarized with 80 mM KCl, Fura-2 fluorescence, read-out: Inhibitory effect on calcium flow (%)
Procedure: Determination of Inhibitory Activity on N-type Calcium Channel:
Cell line was differentiated according to the method described in FEBS Lett. (1988) 235 178-182. The cell was loaded with fluoriescent reagent, Fura-2 AM (at the final concentration of 10 μM), at 37° C. for 30 minutes and suspended in Krebs-buffer containing HEPES (25 mM) to obtain the cell suspension. The obtained cell suspension was incubated in the presence or absence of the compounds of the present invention with nifedipine for 5 minutes. The cell was depolarized by adding potassium chloride solution (at the final concentration of 80 mM) thereto and then a fluorescence intensity at the emission wavelength of 500 nm excited by the UV of 340 nm and 380 nm alternately was measured using the intracellular calcium analyzer (Nippon Bunko Co., CAF-110). The inhibitory activity of the compound of the present invention (at the final concentration of 3 μM) on calcium influx into the cell was calculated from the difference in changing the fluorescence intensity at peak (ΔR) according to the following equation. [formula]

T1 sequence (Q00975 whole entry): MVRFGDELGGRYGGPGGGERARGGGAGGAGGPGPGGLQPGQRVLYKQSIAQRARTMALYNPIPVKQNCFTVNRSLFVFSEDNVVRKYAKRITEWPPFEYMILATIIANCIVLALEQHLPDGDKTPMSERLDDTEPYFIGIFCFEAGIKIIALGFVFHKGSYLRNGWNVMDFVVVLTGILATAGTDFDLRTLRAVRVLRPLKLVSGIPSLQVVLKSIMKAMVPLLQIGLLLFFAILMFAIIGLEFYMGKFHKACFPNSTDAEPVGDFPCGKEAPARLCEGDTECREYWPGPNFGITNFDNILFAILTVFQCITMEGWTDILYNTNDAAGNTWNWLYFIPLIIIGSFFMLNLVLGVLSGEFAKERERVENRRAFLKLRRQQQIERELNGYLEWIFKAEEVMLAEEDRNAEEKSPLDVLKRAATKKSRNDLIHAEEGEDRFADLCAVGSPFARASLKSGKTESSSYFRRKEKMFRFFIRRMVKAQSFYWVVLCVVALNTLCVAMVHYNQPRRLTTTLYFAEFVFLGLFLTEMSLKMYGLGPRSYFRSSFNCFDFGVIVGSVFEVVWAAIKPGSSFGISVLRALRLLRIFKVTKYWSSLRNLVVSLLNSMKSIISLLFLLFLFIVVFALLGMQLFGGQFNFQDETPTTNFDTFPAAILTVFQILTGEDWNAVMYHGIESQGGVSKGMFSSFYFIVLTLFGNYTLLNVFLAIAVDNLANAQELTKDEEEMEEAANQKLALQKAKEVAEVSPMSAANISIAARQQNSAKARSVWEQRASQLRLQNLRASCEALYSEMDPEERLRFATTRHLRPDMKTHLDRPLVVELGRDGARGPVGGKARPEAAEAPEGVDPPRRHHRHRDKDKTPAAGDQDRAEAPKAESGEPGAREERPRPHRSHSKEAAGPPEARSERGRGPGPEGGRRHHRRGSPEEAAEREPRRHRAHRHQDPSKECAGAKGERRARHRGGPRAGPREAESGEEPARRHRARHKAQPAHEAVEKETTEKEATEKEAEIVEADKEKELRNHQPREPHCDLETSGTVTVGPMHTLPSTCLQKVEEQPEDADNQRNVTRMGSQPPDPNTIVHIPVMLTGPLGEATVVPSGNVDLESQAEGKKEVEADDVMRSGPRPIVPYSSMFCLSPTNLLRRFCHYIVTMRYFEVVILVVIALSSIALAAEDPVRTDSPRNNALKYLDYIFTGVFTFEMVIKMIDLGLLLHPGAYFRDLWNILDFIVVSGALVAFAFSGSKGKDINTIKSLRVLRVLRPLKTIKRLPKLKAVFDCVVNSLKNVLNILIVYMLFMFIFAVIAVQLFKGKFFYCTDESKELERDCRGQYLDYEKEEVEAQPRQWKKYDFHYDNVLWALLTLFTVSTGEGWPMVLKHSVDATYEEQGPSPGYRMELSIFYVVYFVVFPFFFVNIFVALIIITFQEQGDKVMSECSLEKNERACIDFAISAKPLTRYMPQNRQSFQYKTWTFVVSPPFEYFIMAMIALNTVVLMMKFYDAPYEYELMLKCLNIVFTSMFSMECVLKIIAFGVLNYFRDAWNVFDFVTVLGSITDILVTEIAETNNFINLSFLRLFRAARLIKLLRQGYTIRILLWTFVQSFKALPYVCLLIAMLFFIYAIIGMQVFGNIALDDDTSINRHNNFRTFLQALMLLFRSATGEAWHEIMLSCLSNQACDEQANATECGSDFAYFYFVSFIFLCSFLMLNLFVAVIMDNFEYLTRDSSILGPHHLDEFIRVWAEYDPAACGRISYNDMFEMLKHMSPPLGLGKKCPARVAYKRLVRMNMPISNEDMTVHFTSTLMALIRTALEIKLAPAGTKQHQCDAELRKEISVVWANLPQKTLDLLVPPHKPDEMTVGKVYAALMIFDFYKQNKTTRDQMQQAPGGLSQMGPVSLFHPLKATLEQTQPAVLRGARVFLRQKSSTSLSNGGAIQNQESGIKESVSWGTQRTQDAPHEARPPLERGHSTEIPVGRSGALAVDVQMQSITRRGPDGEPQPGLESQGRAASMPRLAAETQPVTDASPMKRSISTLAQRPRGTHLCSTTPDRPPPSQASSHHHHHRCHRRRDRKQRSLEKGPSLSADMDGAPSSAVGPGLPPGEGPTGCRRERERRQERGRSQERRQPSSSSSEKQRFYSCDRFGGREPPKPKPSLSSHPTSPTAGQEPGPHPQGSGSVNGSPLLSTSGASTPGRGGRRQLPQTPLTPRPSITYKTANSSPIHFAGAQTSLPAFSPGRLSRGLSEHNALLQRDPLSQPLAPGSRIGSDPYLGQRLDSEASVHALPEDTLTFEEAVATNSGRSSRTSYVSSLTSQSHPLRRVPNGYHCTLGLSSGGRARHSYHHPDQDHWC

Row | Compound | inhibition at 3 µM [%]
1 | CC(C)(C)CC(=O)N1CSC[C@H]1C(=O)N[C@@H](CSCC1CCCCC1)C(=O)NC1CCN(Cc2ccccc2)CC1 [11 (2), (2R)-N-(1-benzylpiperidin-4-yl)-3-cyclohexylmethylthio-2-((4R)-3-(3,3-dimethylbutyryl)thiazolidin-4-ylcarbonylamino)propanamide.hydrochloride] | 89
2 | COCCOC(=O)N1CSC[C@H]1C(=O)N[C@@H](CSCC1CCCCC1)C(=O)NC1CCN(Cc2ccccc2)CC1 [compound 11] | 81
